Read-outs that look alike come from different tables or passages of the source.
Tests used:
[1] = test system: Phytophthora infestans—PHYTIN; assay: whole plant or invertebrate; format: in vivo; settings: Phytophthora, in Solanum lycopersicum, 24 h, read-out: PHYTIN in vivo 1 Day Protectant
Ustilago maydis (USTIMA) = assay: microbe, parasite or virus in culture; format: cell-based; settings: Mycosarcoma maydis, read-out: USTIMA in vitro Growth Inhibition
[2] = test system: Rhizoctonia solani (RHIZSO); assay: microbe, parasite or virus in culture; format: cell-based; settings: Rhizoctonia solani, read-out: RHIZSO in vitro Growth Inhibition
[3] = test system: Puccinia recondita—PUCCRT; assay: Brown Rust of Wheat, in vivo whole plant, 24 Hour Protectant; settings: control of fungal infection vs untreated plants; for pest or weed control at 100 ppm: Puccinia, read-out: PUCCRT in vivo 1 Day Protectant
[4] = test system: Phytophthora infestans (PHYTIN); assay: microbe, parasite or virus in culture; format: cell-based; settings: Phytophthora infestans, read-out: PHYTIN in vitro Growth Inhibition
Erysiphe graminis—ERYSGT = assay: Powdery Mildew of Wheat, in vivo whole plant, 24 Hour Protectant; settings: control of fungal infection vs untreated plants; for pest or weed control at 100 ppm: Erysiphe, read-out: ERYSGT in vivo 1 Day Protectant
[5] = test system: Magnaporthe grisea (Pyricularia oryzae—PYRIOR); assay: microbe, parasite or virus in culture; format: cell-based; settings: Pyricularia oryzae, read-out: PYRIOR in vitro Growth Inhibition
[6] = test system: Leptosphaeria nodorum—LEPTNO; assay: Glume Blotch of Wheat, in vivo whole plant, 24 Hour Protectant; settings: control of fungal infection vs untreated plants; for pest or weed control at 100 ppm: Leptosphaeria, read-out: LEPTNO in vivo 1 Day Protectant
[7] = test system: Stagonospora nodorum (Leptosphaeria nodorum—LEPTNO); assay: In vitro fungal growth inhibition, Stagonospora nodorum (LEPTNO); format: cell-based; settings: Leptosphaeria, read-out: LEPTNO in vitro Growth Inhibition
[8] = test system: Mycosphaerella graminicola (Septoria tritici—SEPTTR); assay: In vitro fungal growth inhibition, Mycosphaerella graminicola (SEPTTR); format: cell-based; settings: Zymoseptoria tritici, read-out: SEPTTR in vitro Growth Inhibition
Septoria tritici—SEPTTR = assay: Leaf Blotch of Wheat, in vivo whole plant, 24 Hour Protectant; settings: Zymoseptoria tritici, 24 h, control of fungal infection vs untreated plants, read-out: SEPTTR in vivo 1 Day Protectant
[9] = wheat plants sprayed at 100 ppm, inoculated after 24 hours
[10] = 100 ppm spray, wheat, 24 hour protectant
[11] = 100 ppm spray, 24 hour protectant, wheat

| SMILES | pest or weed control at 100 ppm [1] | inhibition at 25 ppm (Ustilago maydis (USTIMA)) | inhibition at 25 ppm [2] | pest or weed control at 100 ppm [3, 9] | inhibition at 25 ppm [4] | pest or weed control at 100 ppm (Erysiphe graminis—ERYSGT; [9]) | inhibition at 25 ppm [5] | pest or weed control at 100 ppm [6, 9] | inhibition at 25 ppm ([7]; 25 ppm in the growth medium) | inhibition at 25 ppm ([8]; 25 ppm in the growth medium) | melting point | pest or weed control at 100 ppm (Septoria tritici—SEPTTR; [9]) | inhibition at 25 ppm ([7]; 25 ppm in growth medium) | inhibition at 25 ppm ([8]; 25 ppm in growth medium) | further results |
| --- | --- | --- | --- | --- | --- | --- | --- | --- | --- | --- | --- | --- | --- | --- | --- |
| O=C(NCc1ccc(Cl)c(Cl)c1)c1cccnc1O [Compound 517] | < 25% | < 80% | < 80% | < 25% | < 80% | < 25% | < 80% | 25 to 74% | < 80% | < 80% | 229 to 230 °C | < 25% | – | – | – |
| COc1ccnc(C(=O)Nc2ccc(Sc3cccc(C(F)(F)F)c3)cc2)c1O [Compound 445] | < 25% | > 80% | < 80% | – | < 80% | – | > 80% | – | – | – | 167 to 169 °C | – | < 80% | > 80% | pest or weed control at 100 ppm [3, 10]: 25 to 74%; pest or weed control at 100 ppm (Erysiphe graminis—ERYSGT; [10]): 25 to 74%; LEPTNO in vivo 1 Day Protectant [6, 10]: + +; pest or weed control at 100 ppm (Septoria tritici—SEPTTR; [10]): 25 to 74% |
| COc1ccnc(C(=O)N[C@H]2COC(=O)[C@H](CC3CCCC3)[C@@H](OC(=O)C(C)C)[C@H](C)OC2=O)c1O [Compound 402] | < 25% | < 80% | < 80% | – | < 80% | – | < 80% | – | – | – | 182 to 184 °C | – | > 80% | < 80% | pest or weed control at 100 ppm [3, 10]: 25 to 74%; ERYSGT in vivo 1 Day Protectant (Erysiphe graminis—ERYSGT; [10]): + +; LEPTNO in vivo 1 Day Protectant [6, 10]: + +; pest or weed control at 100 ppm (Septoria tritici—SEPTTR; [10]): 25 to 74% |
| Cc1nc(O)c(C(=O)N[C@H]2COC(=O)[C@H](Cc3ccccc3)[C@@H](OC(=O)C(C)C)[C@H](C)OC2=O)cc1Cl [Compound 531] | < 25% | < 80% | < 80% | < 25% | < 80% | 25 to 74% | < 80% | 25 to 74% | < 80% | < 80% | 103 to 108 °C | 25 to 74% | – | – | – |
| COc1ccnc(C(=O)NC2c3ccccc3CC2(C)C)c1O (stereo not drawn) [Compound 284] | < 25% | < 80% | < 80% | – | < 80% | – | < 80% | – | – | – | 122 to 128 °C | – | < 80% | < 80% | pest or weed control at 100 ppm [3, 11]: 25 to 74%; pest or weed control at 100 ppm (Erysiphe graminis—ERYSGT; [11]): < 25%; pest or weed control at 100 ppm [6, 11]: 25 to 74%; pest or weed control at 100 ppm (Septoria tritici—SEPTTR; [11]): 25 to 74% |
| CC(=O)Oc1cccnc1C(=O)NC1CCC(OC(C)=O)CC1 (stereo not drawn) [Compound 564] | < 25% | < 80% | < 80% | < 25% | < 80% | < 25% | < 80% | 25 to 74% | < 80% | < 80% | 158 to 161 °C | < 25% | – | – | – |
| COCc1cc(Oc2ccc(C(F)(F)F)cc2)ccc1NC(=O)c1nccc(OC)c1O [Compound 426] | 25 to 74% | > 80% | > 80% | – | > 80% | – | > 80% | – | – | – | 125 to 127 °C | – | > 80% | > 80% | pest or weed control at 100 ppm [3, 10]: 25 to 74%; pest or weed control at 100 ppm (Erysiphe graminis—ERYSGT; [10]): 25 to 74%; pest or weed control at 100 ppm [6, 10]: < 25%; pest or weed control at 100 ppm (Septoria tritici—SEPTTR; [10]): 25 to 74% |
| COc1cccc(CNC(=O)c2ncccc2O)c1OC [Compound 227] | < 25% | < 80% | < 80% | – | > 80% | – | < 80% | – | – | – | 78 to 79 °C | – | < 80% | < 80% | pest or weed control at 100 ppm [3, 11]: < 25%; pest or weed control at 100 ppm (Erysiphe graminis—ERYSGT; [11]): < 25%; pest or weed control at 100 ppm [6, 11]: < 25%; pest or weed control at 100 ppm (Septoria tritici—SEPTTR; [11]): < 25% |
| COc1ccnc(C(=O)NC2CCc3ccccc3C2=O)c1O (stereo not drawn) [Compound 285] | < 25% | < 80% | > 80% | – | < 80% | – | < 80% | – | – | – | 174 to 179 °C | – | < 80% | < 80% | pest or weed control at 100 ppm [3, 11]: < 25%; pest or weed control at 100 ppm (Erysiphe graminis—ERYSGT; [11]): < 25%; pest or weed control at 100 ppm [6, 11]: 25 to 74%; pest or weed control at 100 ppm (Septoria tritici—SEPTTR; [11]): 25 to 74% |
| CC1(C)CC(NC(=O)c2cscc2O)CC(C)(C)C1 [Compound 554, 4-HYDROXYTHIOPHENE-N-(3,3,5,5-TETRAMETHYLCYCLOHEXYL)-3-CARBOXAMIDE] | < 25% | < 80% | < 80% | 25 to 74% | > 80% | < 25% | > 80% | 25 to 74% | > 80% | < 80% | 170 to 174 °C | 25 to 74% | – | – | – |
| COc1ccnc(C(=O)N[C@H]2CO[C@](C)(C(C)CC3=C(C)CCCC3(C)C)OC2)c1O (stereo partly drawn) [Compound 319] | < 25% | < 80% | < 80% | – | < 80% | – | < 80% | – | – | – | 139 to 140 °C | – | < 80% | < 80% | PUCCRT in vivo 1 Day Protectant [3, 11]: + +; pest or weed control at 100 ppm (Erysiphe graminis—ERYSGT; [11]): 25 to 74%; pest or weed control at 100 ppm [6, 11]: < 25%; pest or weed control at 100 ppm (Septoria tritici—SEPTTR; [11]): 25 to 74% |
| CC(NC(=O)c1nc(Br)ccc1O)c1ccc(Cl)cc1 (stereo not drawn) [Compound 487] | < 25% | < 80% | < 80% | 25 to 74% | < 80% | < 25% | > 80% | < 25% | < 80% | < 80% | 106 to 107 °C | < 25% | – | – | – |
| COc1ccnc(C(=O)N[C@H]2COC(=O)[C@H](Cc3ccccc3)[C@@H](OC(=O)C(C)(C)C)[C@H](C)OC2=O)c1O [Compound 388] | < 25% | < 80% | < 80% | – | < 80% | – | < 80% | – | – | – | 212 to 214 °C | – | > 80% | > 80% | pest or weed control at 100 ppm [3, 10]: 25 to 74%; pest or weed control at 100 ppm (Erysiphe graminis—ERYSGT; [10]): < 25%; LEPTNO in vivo 1 Day Protectant [6, 10]: + +; pest or weed control at 100 ppm (Septoria tritici—SEPTTR; [10]): 25 to 74% |
| COc1ccnc(C(=O)Nc2ccc(Oc3cccc(C(F)(F)F)n3)cc2)c1O [Compound 463] | < 25% | < 80% | < 80% | < 25% | < 80% | < 25% | < 80% | < 25% | < 80% | < 80% | 140 to 141.5 °C | 25 to 74% | – | – | – |
